The text below walks through data of patent US20110152227A1, “DEUTERIUM LABELLED DERIVATIVES OF 3-(2-HYDROXY-5-METHYPHENYL)-N,N-DIISOPROPYL-3-PHENYLPROPYLAMINE AND METHODS OF USE THEREOF” (CONCERT PHARMACEUTICALS INC., priority 2008, published 2011).

The structures appear in SMILES notation. Read-outs that look alike come from different tables or passages of the source.

The data set in a line: Evaluation of metabolic stability in human liver microsomes. In kind it is in vitro ADME. The note with it: for half-life at 1 μM: human, human liver microsomes; for half-life in human liver microsomes as compared to tolterodine: result in words, versus tolterodine. As for the experimental part:
Materials: Human liver microsomes (20 mg/mL) were obtained from Xenotech, LLC (Lenexa, Kans.). β-nicotinamide adenine dinucleotide phosphate, reduced form (NADPH), magnesium chloride (MgCl2), and dimethyl sulfoxide (DMSO) were purchased from Sigma-Aldrich.
The 7.5 mM stock solutions were diluted to 50 μM in acetonitrile (ACN). The 20 mg/mL human liver microsomes were diluted to 0.625 mg/mL in 0.1 M potassium phosphate buffer, pH 7.4, containing 3 mM MgCl2. The diluted microsomes were added to wells of a 96-well deep-well polypropylene plate in duplicate. Ten μL of one of the […] test compound solutions was added to the microsomes and the mixture was pre-warmed for 10 minutes. Reactions were initiated by addition of pre-warmed NADPH solution. The final reaction volume was 0.5 mL and contained 0.5 mg/mL human liver microsomes, 1 μM test compound, and 2 mM NADPH in 0.1 M potassium phosphate buffer, pH 7.4, and 3 mM MgCl2. The reaction mixtures were incubated at 37° C., and 50 μL aliquots were removed at 0, 5, 10, 20, and 30 minutes and added to shallow-well 96-well plates which contained 50 μL of ice-cold ACN with internal standard to stop the reactions. The plates were stored at 4° C. for 20 minutes after which 100 μL of water was added to the wells of the plate before centrifugation to pellet precipitated proteins. Supernatants were transferred to another 96-well plate and analyzed for amounts of parent remaining by LC-MS/MS using an Applied Bio-systems API 4000 mass spectrometer. 7-ethoxy coumarin (1 μM) was used as a positive control. The experiment was repeated as second time to confirm the results.
Data analysis: The in vitro t1/2s for test compounds were calculated from the slopes of the linear regression of % parent remaining (ln) vs incubation time relationship using the following formula: in vitro t1/2=0.693/k, where k=−[slope of linear regression of % parent remaining (ln) vs incubation time]. Data analysis was performed using Microsoft Excel Software.
(Liver microsomes are vesicles of endoplasmic reticulum, rich in cytochrome P450 enzymes.)

[1] abbreviates: pH 7.4, average of Experiment 1 and 2, human liver microsomes, read-out: Ave t1/2.
[2] abbreviates: pH 7.4, human liver microsomes 0.5 mg/mL, 1 μM test compound, 2 mM NADPH, 37° C., 0-30 minutes, Experiment 1, read-out: t1/2 (minutes) Experiment 1.
The mark [3] stands for this setting: pH 7.4, human liver microsomes 0.5 mg/mL, 1 μM test compound, 2 mM NADPH, 37° C., 0-30 minutes, Experiment 2 (repeat), read-out: t1/2 (minutes) Experiment 2.

With `[2H]C([2H])([2H])c1ccc(O)c([C@H](CCN(C([2H])(C([2H])([2H])[2H])C([2H])([2H])[2H])C([2H])(C([2H])([2H])[2H])C([2H])([2H])[2H])c2ccccc2)c1` [Compound 100], the “half-life in human liver microsomes as compared to tolterodine” value was “substantially increased half-life”. Also, the half-life at 1 μM under setting [1] worked out at 25.8 min. Moreover, the half-life at 1 μM under setting [2] was determined as 23.5 min. In addition, the half-life at 1 μM under setting [3] amounted to 28 min.

With `[2H]C([2H])([2H])C([2H])(N(CC[C@H](c1ccccc1)c1cc(C)ccc1O)C([2H])(C([2H])([2H])[2H])C([2H])([2H])[2H])C([2H])([2H])[2H]` [Compound 106, (R)-2-(3-(Di(isopropyl-d7)amino)-1-phenylpropyl)-4-methylphenol], the half-life at 1 μM runs as follows: under setting [1], 15.1 min; under setting [2], 14.6 min; under setting [3], 15.6 min.

As to `[2H]C([2H])([2H])c1ccc(O)c([C@H](CCN(C(C)C)C(C)C)c2ccccc2)c1` [Compound 112], the “half-life in human liver microsomes as compared to tolterodine” value is listed as “substantially increased half-life”. Besides, the half-life at 1 μM under setting [1] was 26.6 min. Further, the half-life at 1 μM under setting [2] is 24.3 min. Also, the half-life at 1 μM under setting [3] turned out to be 28.9 min.

In the case of `Cc1ccc(O)c(C(CCN(C(C)C)C(C)C)c2ccccc2)c1` (centres unmarked) [Tolterodine, 3-(2-hydroxy-5-methylphenyl)-N,N-diisopropyl-3-phenylpropylamine, reference compound], the half-life at 1 μM reads like this: under setting [1], 13.8 min; under setting [2], 13.4 min; under setting [3], 14.2 min.
